Literature values as cited in article PMC4261083, “An atypical residue in the pore of Varroa destructor GABA-activated RDL receptors affects picrotoxin block and thymol modulation” (Insect Biochemistry and Molecular Biology, 2014).
pIC50: −log10 of the molar value.

Tested on: Tetranychus RDL receptors
Set-up: method as in Asahi et al., 2014
Details: expressed in Xenopus oocytes, ref Asahi et al., 2014, cited from earlier work

Structure (SMILES)	Sensitivity of Tetranychus RDL receptors to fipronil	pIC50 (read-out: IC50 for block of Tetranychus RDL receptors)
N#Cc1nn(-c2c(Cl)cc(C(F)(F)F)cc2Cl)c(N)c1[S+]([O-])C(F)(F)F (centres unmarked) [fipronil]	resistant	–
Cc1cc(C2=NOC(c3cc(Cl)cc(Cl)c3)(C(F)(F)F)C2)ccc1C(=O)NCC(=O)NCC(F)(F)F (centres unmarked) [fluralaner]	–	~8.00
